This note sets out measurements from patent US9006450B2 (Boehringer Ingelheim International GmbH, priority 2010, dated 2015).

A word on the IC50: it is the concentration that inhibits the measured activity by half.

T1 sequence (O00763 129-2458 limits assumed): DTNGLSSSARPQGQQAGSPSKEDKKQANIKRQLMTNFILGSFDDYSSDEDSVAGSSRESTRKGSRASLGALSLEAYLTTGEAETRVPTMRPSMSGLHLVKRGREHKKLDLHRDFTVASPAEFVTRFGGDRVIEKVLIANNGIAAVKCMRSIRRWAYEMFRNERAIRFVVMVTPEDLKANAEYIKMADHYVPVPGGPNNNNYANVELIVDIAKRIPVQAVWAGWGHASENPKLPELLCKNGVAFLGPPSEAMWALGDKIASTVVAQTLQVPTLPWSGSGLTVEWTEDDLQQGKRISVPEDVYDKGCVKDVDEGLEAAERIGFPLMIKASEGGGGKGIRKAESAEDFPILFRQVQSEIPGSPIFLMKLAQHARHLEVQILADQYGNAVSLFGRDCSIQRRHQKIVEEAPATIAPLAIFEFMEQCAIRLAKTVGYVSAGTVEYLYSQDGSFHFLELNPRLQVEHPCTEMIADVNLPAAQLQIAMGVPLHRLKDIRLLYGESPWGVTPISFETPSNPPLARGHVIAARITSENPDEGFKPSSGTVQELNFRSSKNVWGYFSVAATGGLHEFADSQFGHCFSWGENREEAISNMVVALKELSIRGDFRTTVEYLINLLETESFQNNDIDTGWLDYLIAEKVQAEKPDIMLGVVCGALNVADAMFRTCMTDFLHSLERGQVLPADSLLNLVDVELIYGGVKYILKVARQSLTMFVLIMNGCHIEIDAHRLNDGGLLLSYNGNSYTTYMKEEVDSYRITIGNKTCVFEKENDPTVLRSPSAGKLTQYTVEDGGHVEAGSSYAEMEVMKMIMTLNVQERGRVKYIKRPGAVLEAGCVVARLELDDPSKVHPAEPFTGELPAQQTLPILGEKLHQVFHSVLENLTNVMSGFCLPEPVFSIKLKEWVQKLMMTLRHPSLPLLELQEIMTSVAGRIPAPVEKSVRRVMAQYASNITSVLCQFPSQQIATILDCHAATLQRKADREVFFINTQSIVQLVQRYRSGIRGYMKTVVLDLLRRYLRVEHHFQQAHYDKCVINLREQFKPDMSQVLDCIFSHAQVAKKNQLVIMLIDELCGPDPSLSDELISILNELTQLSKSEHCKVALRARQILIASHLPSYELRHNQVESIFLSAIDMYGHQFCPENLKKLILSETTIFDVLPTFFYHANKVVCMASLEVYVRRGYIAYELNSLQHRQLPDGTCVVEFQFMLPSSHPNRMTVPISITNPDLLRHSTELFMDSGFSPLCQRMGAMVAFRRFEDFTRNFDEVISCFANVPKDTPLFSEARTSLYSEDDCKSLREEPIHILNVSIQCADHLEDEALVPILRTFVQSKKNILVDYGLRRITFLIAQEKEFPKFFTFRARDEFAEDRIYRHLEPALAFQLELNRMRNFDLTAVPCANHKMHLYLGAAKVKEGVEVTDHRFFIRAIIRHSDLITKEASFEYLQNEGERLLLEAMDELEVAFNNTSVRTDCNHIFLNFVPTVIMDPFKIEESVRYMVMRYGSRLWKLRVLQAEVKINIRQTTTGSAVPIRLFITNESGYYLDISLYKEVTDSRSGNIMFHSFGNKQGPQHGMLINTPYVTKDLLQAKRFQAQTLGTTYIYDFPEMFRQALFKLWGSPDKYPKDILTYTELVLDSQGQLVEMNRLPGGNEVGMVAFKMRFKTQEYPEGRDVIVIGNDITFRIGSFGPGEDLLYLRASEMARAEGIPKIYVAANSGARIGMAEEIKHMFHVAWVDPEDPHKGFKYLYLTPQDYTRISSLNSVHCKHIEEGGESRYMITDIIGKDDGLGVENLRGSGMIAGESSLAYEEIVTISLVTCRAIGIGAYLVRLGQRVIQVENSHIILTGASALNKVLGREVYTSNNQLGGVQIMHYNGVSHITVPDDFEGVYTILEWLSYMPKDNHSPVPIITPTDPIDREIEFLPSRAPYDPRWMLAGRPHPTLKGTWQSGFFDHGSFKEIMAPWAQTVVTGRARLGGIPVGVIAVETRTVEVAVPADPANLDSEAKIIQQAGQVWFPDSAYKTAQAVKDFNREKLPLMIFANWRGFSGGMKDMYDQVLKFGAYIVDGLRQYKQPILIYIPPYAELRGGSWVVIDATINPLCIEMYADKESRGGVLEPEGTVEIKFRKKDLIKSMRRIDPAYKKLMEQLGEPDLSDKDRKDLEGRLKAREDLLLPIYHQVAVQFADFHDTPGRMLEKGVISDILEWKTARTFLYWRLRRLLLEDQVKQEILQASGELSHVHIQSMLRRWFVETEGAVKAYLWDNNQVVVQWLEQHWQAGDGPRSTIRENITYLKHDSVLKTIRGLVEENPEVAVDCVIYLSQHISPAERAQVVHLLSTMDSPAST

This assay has as its target T1, human ACC2 (Homo sapiens, UniProt O00763).
T1 construct: made in house; host or cells: insect cells (baculoviral expression system)
Nature of the assay: ACC2 assay, spectrophotometric 384 well assay (NADH-linked, coupled lactate dehydrogenase/pyruvate kinase). The following applies: ACC2 assay, hACC2 construct lacking 128 N-terminal amino acids, 25° C., 340 nm; read-out: IC50. Type of assay: biochemical. In a few lines: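 Human ACC2 lacking N-terminal 128 aa, baculovirus/insect-cell expressed, anion-exchange purified; 100 mM Tris pH 7.5, 10 mM citrate, 25 mM KHCO3, 1% DMSO. Started with 200 μM NADH and acetyl-CoA plus 500 μM ATP; PK/LDH-coupled A340 decrease read 15 min at 25° C. IC50 by nonlinear fit of low-control-subtracted slopes.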
For the molecule `C[C@H](NC(=O)C1CC1)c1ccc(C2CCN(c3ncnc(Cl)c3F)CC2)cc1` [Example 5.37], the IC50 turned out to be 2900 nM. Next, `CC(=O)N[C@@H](C)c1ccc(C2CCN(c3ccc(OCC4CC4)nc3)CC2)cc1` [Example 1.59]: 140 nM; `C[C@H](NC(=O)N(C)C)c1ccc(C2CCN(c3ccc(OC4CCCC4)cc3)CC2)cc1` [Example 1.125]: 100 nM; `CC(=O)N[C@@H](C)c1ccc(C2CCN(c3ccc4nnn(C)c4n3)CC2)cc1` [Example 4.14]: 2400 nM. On to `CC(=O)N[C@@H](C)c1ccc(C2CCN(c3ccnc(OC4CCCC4)c3)CC2)cc1` [Example 19.4], for which the IC50 was 70 nM. Next, `CCOC(=O)c1cc(C#N)c(N2CCC(c3ccc([C@H](C)NC(C)=O)cc3)CC2)nc1C(F)(F)F` [Example 5.15]: 4900 nM. Next, `COc1ccc(N2CCC(c3ccc([C@H](C)NC(C)=O)cc3)CC2)nc1` [Example 5.2]: 330 nM; `CC(=O)N[C@@H](C)c1ccc(C2CCN(c3ccc(OCC/C=C/C4CC4)cc3)CC2)cc1` [Example 8.65]: 220 nM. To `CCOc1cnc(N2CCC(c3ccc([C@H](C)NC(C)=O)cc3)CC2)c(F)c1` [Example 1.100] belongs 520 nM; to `CC(=O)N[C@@H](C)c1ccc(C2CCN(c3ncc(C(=O)N(C)C4CC4)cn3)CC2)cc1` [Example 18.26], 2500 nM; to `CC(=O)N[C@@H](C)c1ccc(C2CCN(c3ccc(C4(C#N)CC4)cn3)CC2)cc1` [Example 5.35], 2800 nM. Consider `Cc1cc(OC2CC2)ccc1N1CCC(c2ccc([C@H](C)NC(=O)N(C)C)cc2)CC1` [Example 1.57], for which the IC50 was determined as 100 nM. Next, `CC(=O)N[C@@H](C)c1ccc(C2CCN(c3ccnc(C(F)(F)F)n3)CC2)cc1` [Example 4.26]: 290 nM.

Take `CCOc1ccc(N2CCC(c3ccc([C@H](C)NC(C)=O)cc3)CC2)c(C(N)=O)c1` [Example 37.1, (S)-2-(4-(4-(1-Acetamidoethyl)phenyl)piperidin-1-yl)-5-ethoxybenzamide]: the IC50 turned out to be 23100 nM. To `CC(=O)N[C@@H](C)c1ccc(C2CCN(c3cc(N4CCC5(CC5)C4)ncn3)CC2)cc1` [Example 11.92] belongs 320 nM; to `CC(=O)N[C@@H](C)c1ccc(C2CCN(c3ncc(C(=O)Nc4ccccc4)cn3)CC2)cc1` [Example 18.95], 190 nM. To `C[C@H](NC(=O)C1CC1)c1ccc(C2CCN(c3ccc4c(c3)OCC(C)(C)CO4)CC2)cc1` [Example 1.87] belongs 1200 nM; to `CCCCOc1ccc(N2CCC(c3ccc([C@H](C)NC(C)=O)cc3)CC2)cc1OC` [Example 8.43], 2100 nM; to `COc1cccc(Oc2cc(N3CCC(c4ccc([C@H](C)NC(C)=O)cc4)CC3)ncn2)c1` [Example 11.31], 690 nM. As for `CCOc1nccc(N2CCC(c3ccc([C@H](C)NC(C)=O)cc3)CC2)n1` [Example 11.37], the IC50 turned out to be 930 nM. Next, `CC(=O)N[C@@H](C)c1ccc(C2CCN(c3ncc(C(=O)Nc4ccc(CN(C)C)cc4)cn3)CC2)cc1` [Example 18.86]: 11300 nM; `CC(=O)N[C@@H](C)c1ccc(C2CCN(c3ncc(C(=O)NCC4CCCO4)cn3)CC2)cc1` (stereo partly shown) [Example 18.57]: 22400 nM; `COc1ccc(N2CCC(c3ccc([C@H](C)NC(C)=O)cc3)CC2)c(OC)c1` [Example 1.41]: 320 nM. To `CC(=O)N[C@@H](C)c1ccc(C2CCN(c3ccnc(N4CCC5(CC5)C4)n3)CC2)cc1` [Example 11.93] belongs 550 nM; to `CC(C)Oc1cc(N2CCC(c3ccc([C@H](C)NC(=O)C4CC4)cc3)CC2)ccn1` [Example 1.120], 250 nM; to `CC(=O)NC(C)Cc1ccc(C2CCN(c3ccc4c(c3)OCCO4)CC2)cc1` (stereo not shown) [Example 2.4], 1800 nM. As for `CC(=O)N[C@@H](C)c1ccc(C2CCN(c3ccnc(NC4CCCC4)n3)CC2)cc1` [Example 11.61], the IC50 is 1300 nM. To `CCOc1ccc(N2CCC(c3ccc([C@H](C)NC(=O)OC)cc3)CC2)cc1` [Example 1.5] belongs 350 nM. As to `CC(=O)N[C@@H](C)c1ccc(C2CCN(c3ccc(OC(C)C)c(C#N)c3)CC2)cc1` [Example 8.24], the IC50 was 12400 nM.

Regarding `CC(=O)N[C@@H](C)c1ccc(C2CCN(c3cc(OCc4ccccc4)ncn3)CC2)cc1` [Example 11.24], the IC50 was 370 nM. Regarding `CC(=O)N[C@@H](C)c1ccc(C2CCN(c3cccc(C#N)n3)CC2)cc1` [Example 5.19], the IC50 stood at 1000 nM. Next, `CC(=O)N[C@@H](C)c1ccc(C2CCN(c3ncc(-c4ccc(C)c(C)c4)cn3)CC2)cc1` [Example 10.47]: 270 nM; `CC(=O)N[C@@H](C)c1ccc(C2CCN(c3ncc(C(=O)NC4CC4)cn3)CC2)cc1` [Example 18.5]: 1900 nM.

`CCCOc1ccc(N2CCC(c3ccc([C@H](C)NC(C)=O)cc3)CC2)c(C#N)n1` [Example 1.181]: the IC50 came out at 90 nM. To `CC(=O)N[C@@H](C)c1ccc(C2CCN(c3ccnc(OCc4cccnc4)c3)CC2)cc1` [Example 19.34] belongs 520 nM. To `COc1cc(OC)cc(-c2cnc(N3CCC(c4ccc([C@H](C)NC(C)=O)cc4)CC3)nc2)c1` [Example 10.34] belongs 210 nM; to `CC(=O)N[C@@H](C)c1ccc(C2CCN(c3ccc4sccc4c3)CC2)cc1` [Example 1.69], 4000 nM. Next, `CC(=O)N[C@@H](C)c1ccc(C2CCN(c3cc(C)c4ccccc4n3)CC2)cc1` [Example 4.4]: 1800 nM; `CC(=O)N[C@@H](C)c1ccc(C2CCN(c3cc(OCCC(C)(C)C)ncn3)CC2)cc1` [Example 11.12]: 300 nM; `CC(=O)N[C@@H](C)c1ccc(C2CCN(c3cccc(OCC(C)C)c3)CC2)cc1` [Example 8.4]: 400 nM. `CC(=O)N[C@@H](C)c1ccc(C2CCN(c3ccnc(NCc4ccccc4)n3)CC2)cc1` [Example 11.56]: the IC50 came out at 2300 nM. Consider `CCOc1cc(N2CCC(c3ccc([C@H](C)NC(C)=O)cc3)CC2)ncn1` [Example 11.36], for which the IC50 was 580 nM. Next, `CC(=O)N[C@@H](C)c1ccc(C2CCN(c3ncc(C(=O)N4CCOCC4)cn3)CC2)cc1` [Example 18.94]: 2200 nM; `CCOc1ccc(N2CCC(c3ccc([C@H](C)NC(=O)C4CC4)cc3)CC2)c(OCC)c1` [Example 1.121]: 8100 nM; `CCOc1cccc(-c2ccc(N3CCC(c4ccc([C@H](C)NC(C)=O)cc4)CC3)nc2)c1` [Example 10.306]: 310 nM. To `COc1cc(-c2cnc(N3CCC(c4ccc([C@H](C)NC(C)=O)cc4)CC3)nc2)ccc1C#N` [Example 10.128] belongs 140 nM. To `CC(=O)N[C@@H](C)c1ccc(C2CCN(c3cccc(OCc4cc(C)on4)c3)CC2)cc1` [Example 9.11] belongs 170 nM; to `CC(=O)N[C@@H](C)c1ccc(C2CCN(c3ncc(C(=O)N(C)CC#N)cn3)CC2)cc1` [Example 18.42], 14000 nM; to `CCOC(=O)c1ccnc(N2CCC(c3ccc([C@H](C)NC(C)=O)cc3)CC2)c1C` [Example 5.29], 170 nM. Turning to `CC(=O)N[C@@H](C)c1ccc(C2CCN(c3nccc(-c4ccccc4)n3)CC2)cc1` [Example 4.21], the IC50 was 520 nM. For the molecule `C[C@H](NC(=O)C1CC1)c1ccc(C2CCN(c3ccc(OCCC4CC4)cc3)CC2)cc1` [Example 1.143], the 50% inhibitory concentration (IC50) worked out at 120 nM. To `CCCCOc1ccc(N2CCC(c3ccc([C@H](C)NC(C)=O)cc3)CC2)cc1C#N` [Example 8.41] belongs 4200 nM; to `CCOc1ccc(N2CCC(c3ccc([C@H](C)NC(C)=O)cc3)CC2)cc1` [Example 1.1, (S)—N-(1-{4-[1-(4-Ethoxy-phenyl)-piperidin-4-yl]-phenyl}-ethyl)-acetamide], 130 nM.

For the molecule `Cc1cccc(-c2cnc(N3CCC(c4ccc([C@H](C)NC(=O)N(C)C)cc4)CC3)nc2)c1` [Example 10.107], the concentration for half-maximal inhibition (IC50) was determined as 110 nM. Next, `CC(=O)N[C@@H](C)c1ccc(C2CCN(c3cc(-c4ccc5[nH]ccc5c4)ncn3)CC2)cc1` [Example 22.13]: 440 nM; `CC(=O)N[C@@H](C)c1ccc(C2CCN(c3ncc(C(=O)NC4CCN(C)C4)cn3)CC2)cc1` (stereo partly shown) [Example 18.81]: 16500 nM. Next, `CC(=O)N[C@@H](C)c1ccc(C2CCN(c3ccnc(OC4CCC4)c3)CC2)cc1` [Example 19.2]: 40 nM; `C[C@H](NC(=O)C1CC1)c1ccc(C2CCN(c3ncc(-c4ccc5c(c4)CCO5)cn3)CC2)cc1` [Example 10.98]: 900 nM; `CC(=O)N[C@@H](C)c1ccc(C2CCN(c3cc(C)ccn3)CC2)cc1` [Example 5.41]: 5000 nM.

As to `CC(=O)N[C@@H](C)c1ccc(C2CCN(c3ncc(C(=O)N4Cc5cccnc5C4)cn3)CC2)cc1` [Example 18.38], the IC50 turned out to be 3100 nM. Consider `CC(=O)N[C@@H](C)c1ccc(C2CCN(c3cccc(OC(C)C)c3)CC2)cc1` [Example 8.7], for which the IC50 worked out at 160 nM. Next, `COc1ccc(N2CCC(c3ccc([C@H](C)NC(C)=O)cc3)CC2)cc1C1CC1` [Example 1.166]: 4000 nM; `CCC(C)Oc1ccc(N2CCC(c3ccc([C@H](C)NC(C)=O)cc3)CC2)cc1` (stereo partly shown) [Example 1.29]: 80 nM.

For `CC(=O)NC(C)Cc1ccc(C2CCN(c3ccnc(N(C)C4CCCC4)n3)CC2)cc1` (stereo not shown) [Example 12.1, N-[2-(4-{1-[2-(Cyclopentyl-methyl-amino)-pyrimidin-4-yl]-piperidin-4-yl}-phenyl)-1-methyl-ethyl]-acetamide], the IC50 stood at 610 nM.
